Reference: ChEMBL document CHEMBL1159201, “Microbial biotransformation of veratramine” (J Nat Prod, 1998)
≈ marks a conversion by molar mass, not a printed value.

Key:
Vero = assay: Cytotoxicity against african green monkey Vero cells; format: cell-based; conditions: chlorocebus sabaeus
Plasmodium falciparum = assay: Antiplasmodial activity against Plasmodium falciparum W2; format: functional, organism-based

IC50 (Plasmodium falciparum) | Structure (SMILES) | Activity (Vero)
 | Cc1c([C@H](C)[C@@H]2NC[C@@H](C)C[C@H]2O)ccc2c1C[C@H]1[C@H]2CCC2=CC(=O)CC[C@@]21C | Non-toxic
3.6 mg/L (≈ 8.88 µM) | Cc1c([C@H](C)[C@@H]2NC[C@@H](C)C[C@H]2O)ccc2c1C[C@H]1[C@H]2CCC2=CC(=O)C=C[C@@]21C | Non-toxic
 | Cc1c([C@H](C)[C@@H]2NC[C@@H](C)C[C@H]2O)ccc2c1C[C@H]1[C@H]2CC[C@H]2CC(=O)CC[C@@]21C [DIHYDROVERATRAM-3-ONE] | Non-toxic
 | Cc1c([C@H](C)[C@@H]2NC[C@@H](C)C[C@H]2O)ccc2c1C[C@H]1[C@H]2CC=C2C[C@@H](O)CC[C@@]21C [VERATRAMINE] | Non-toxic
